PubChem BioAssay (NCI)
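Grown in 96-well plates, cells were treated for 48 hours with each compound at five concentrations. Insufficient inhibition: endpoint recorded as highest concentration tested. GI50 = concentration required for 50% inhibition of growth. TGI marks complete inhibition of growth.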

Tests used:
Assay in all cases: growth of human tumour cells (NCI), 48 h
[1] = system: 786-0 renal
[2] = system: A498 renal
[3] = system: A549 NSCLC
[4] = system: ACHN renal
[5] = system: BT-549 breast
[6] = system: CAKI-1 renal
[7] = system: CCRF-CEM leukemia
[8] = system: COLO 205 colon
[9] = system: DU-145 prostate
[10] = system: EKVX NSCLC
[11] = system: HCC-2998 colon
[12] = system: HCT-116 colon
[13] = system: HCT-15 colon
[14] = system: HOP-62 NSCLC
[15] = system: HOP-92 NSCLC
[16] = system: HS 578T breast
[17] = system: HT29 colon
[18] = system: IGROV1 ovarian
[19] = system: K-562 leukemia
[20] = system: KM12 colon
[21] = system: LOX IMVI melanoma
[22] = system: M14 melanoma
[23] = system: MALME-3M melanoma
[24] = system: MCF7 breast
[25] = system: MDA-MB-231 breast
[26] = system: MDA-MB-435
[27] = system: MOLT-4 leukemia
[28] = system: NCI-H226 lung
[29] = system: NCI-H23 lung
[30] = system: NCI-H460 lung
[31] = system: NCI-H522 lung
[32] = system: NCI/ADR-RES ovarian
[33] = system: OVCAR-3 ovarian
[34] = system: OVCAR-4 ovarian
[35] = system: OVCAR-5 ovarian
[36] = system: OVCAR-8 ovarian
[37] = system: PC-3 prostate
[38] = system: RPMI-8226 leukemia
[39] = system: RXF 393 renal
[40] = system: SF-268 CNS
[41] = system: SF-295 CNS
[42] = system: SF-539 CNS
[43] = system: SK-MEL-2 melanoma
[44] = system: SK-MEL-28 melanoma
[45] = system: SK-MEL-5 melanoma
[46] = system: SK-OV-3 ovarian
[47] = system: SN12C renal
[48] = system: SNB-19 CNS
[49] = system: SNB-75 CNS
[50] = system: SR leukemia
[51] = system: SW-620 colon
[52] = system: T-47D breast
[53] = system: TK-10 renal
[54] = system: U251 CNS
[55] = system: UACC-257 melanoma
[56] = system: UACC-62 melanoma
[57] = system: UO-31 renal
[58] = system: HL-60(TB) leukemia

## CCNCCS(=O)(=O)NC[C@@]1(c2ccccc2)SC(NC(=O)C(C)(C)C)=NN1C(=O)C(C)(C)C
[1]
  GI50: 0.341 µM
  TGI: > 100 µM
[2]
  GI50: < 0.01 µM
  TGI: 53.4 µM
[3]
  GI50: < 0.01 µM
  TGI: > 100 µM
[4]
  GI50: 4.9 µM
  TGI: > 100 µM
[5]
  GI50: 0.357 µM
  TGI: > 100 µM
[6]
  GI50: 0.694 µM
  TGI: > 100 µM
[7]
  GI50: < 0.01 µM
  TGI: > 100 µM
[8]
  GI50: < 0.01 µM
  TGI: 12.1 µM
[9]
  GI50: < 0.0159 µM
  TGI: > 100 µM
[10]
  GI50: < 0.0314 µM
  TGI: > 100 µM
[11]
  GI50: < 0.01 µM
  TGI: > 51.2 µM
[12]
  GI50: < 0.01 µM
  TGI: > 100 µM
[13]
  GI50: 0.399 µM
  TGI: > 100 µM
[14]
  GI50: 0.0353 µM
  TGI: > 100 µM
[15]
  TGI: > 82.1 µM
[16]
  GI50: < 0.01 µM
  TGI: > 100 µM
[17]
  GI50: < 0.01 µM
  TGI: > 100 µM
[18]
  GI50: 2.9 µM
  TGI: > 100 µM
[19]
  GI50: < 0.01 µM
  TGI: > 100 µM
[20]
  GI50: < 0.01 µM
  TGI: > 100 µM
[21]
  GI50: < 0.0285 µM
  TGI: > 47.3 µM
[22]
  GI50: < 0.01 µM
  TGI: 0.0209 µM
[23]
  GI50: 10.6 µM
  TGI: 30.2 µM
[24]
  GI50: < 0.01 µM
  TGI: > 100 µM
[25]
  GI50: < 0.01 µM
  TGI: 28.1 µM
[26]
  GI50: < 0.01 µM
  TGI: < 0.01 µM
[27]
  GI50: < 0.0139 µM
  TGI: > 100 µM
[28]
  GI50: > 100 µM
  TGI: > 100 µM
[29]
  GI50: 0.0282 µM
  TGI: > 100 µM
[30]
  GI50: < 0.01 µM
  TGI: > 41.9 µM
[31]
  GI50: < 0.01 µM
  TGI: < 0.01 µM
[32]
  GI50: 4.11 µM
  TGI: > 45.8 µM
[33]
  GI50: < 0.01 µM
  TGI: > 100 µM
[34]
  GI50: 35.5 µM
  TGI: > 100 µM
[35]
  GI50: 0.138 µM
  TGI: > 100 µM
[36]
  GI50: < 0.0117 µM
  TGI: > 100 µM
[37]
  GI50: < 0.01 µM
  TGI: > 100 µM
[38]
  GI50: < 0.01 µM
  TGI: > 100 µM
[39]
  GI50: < 0.0223 µM
  TGI: > 62.2 µM
[40]
  GI50: < 0.01 µM
  TGI: > 100 µM
[41]
  GI50: < 0.01 µM
  TGI: 1.16 µM
[42]
  GI50: < 0.01 µM
  TGI: 0.768 µM
[43]
  GI50: < 0.01 µM
  TGI: 28.4 µM
[44]
  GI50: 11.3 µM
  TGI: > 100 µM
[45]
  GI50: < 0.01 µM
  TGI: 20.3 µM
[46]
  GI50: < 0.01 µM
  TGI: > 100 µM
[47]
  GI50: < 0.01 µM
  TGI: > 100 µM
[48]
  TGI: > 100 µM
[49]
  GI50: < 0.0137 µM
  TGI: > 73.8 µM
[50]
  GI50: < 0.01 µM
  TGI: 22.3 µM
[51]
  GI50: < 0.01 µM
  TGI: > 100 µM
[52]
  GI50: < 0.01 µM
  TGI: > 100 µM
[53]
  GI50: 19.3 µM
  TGI: > 100 µM
[54]
  GI50: < 0.01 µM
  TGI: > 100 µM
[55]
  GI50: 11.8 µM
  TGI: > 76.9 µM
[56]
  GI50: < 0.01 µM
  TGI: > 100 µM
[57]
  GI50: 18.8 µM
  TGI: > 100 µM

## O=C(O)C1CC[N-]CC1.O=C(O)C1CC[N-]CC1.[NH2-].[NH2-].[Pt+4]
[1]
  GI50: > 100 µM
  TGI: > 100 µM
[2]
  GI50: > 100 µM
  TGI: > 100 µM
[3]
  GI50: > 100 µM
  TGI: > 100 µM
[4]
  GI50: > 100 µM
  TGI: > 100 µM
[5]
  GI50: > 100 µM
  TGI: > 100 µM
[6]
  GI50: > 100 µM
  TGI: > 100 µM
[7]
  GI50: > 100 µM
  TGI: > 100 µM
[8]
  GI50: > 100 µM
  TGI: > 100 µM
[9]
  GI50: > 100 µM
  TGI: > 100 µM
[10]
  GI50: > 100 µM
  TGI: > 100 µM
[12]
  GI50: > 100 µM
  TGI: > 100 µM
[13]
  GI50: > 100 µM
  TGI: > 100 µM
[58]
  GI50: > 100 µM
  TGI: > 100 µM
[14]
  GI50: > 100 µM
  TGI: > 100 µM
[15]
  GI50: > 100 µM
  TGI: > 100 µM
[16]
  GI50: > 100 µM
  TGI: > 100 µM
[17]
  GI50: > 100 µM
  TGI: > 100 µM
[18]
  GI50: > 100 µM
  TGI: > 100 µM
[19]
  GI50: > 100 µM
  TGI: > 100 µM
[20]
  GI50: > 100 µM
  TGI: > 100 µM
[21]
  GI50: > 100 µM
  TGI: > 100 µM
[22]
  GI50: > 100 µM
  TGI: > 100 µM
[23]
  GI50: > 100 µM
  TGI: > 100 µM
[24]
  GI50: > 100 µM
  TGI: > 100 µM
[25]
  GI50: > 100 µM
  TGI: > 100 µM
[26]
  GI50: > 100 µM
  TGI: > 100 µM
[27]
  GI50: > 100 µM
  TGI: > 100 µM
[28]
  GI50: > 100 µM
  TGI: > 100 µM
[29]
  GI50: > 100 µM
  TGI: > 100 µM
[30]
  GI50: > 100 µM
  TGI: > 100 µM
[31]
  GI50: > 100 µM
  TGI: > 100 µM
[32]
  GI50: > 100 µM
  TGI: > 100 µM
[33]
  GI50: > 100 µM
  TGI: > 100 µM
[34]
  GI50: > 100 µM
  TGI: > 100 µM
[35]
  GI50: > 100 µM
  TGI: > 100 µM
[36]
  GI50: > 100 µM
  TGI: > 100 µM
[37]
  GI50: > 100 µM
  TGI: > 100 µM
[38]
  GI50: > 100 µM
  TGI: > 100 µM
[39]
  GI50: > 100 µM
  TGI: > 100 µM
[40]
  GI50: > 100 µM
  TGI: > 100 µM
[41]
  GI50: > 100 µM
  TGI: > 100 µM
[42]
  GI50: > 100 µM
  TGI: > 100 µM
[43]
  GI50: > 100 µM
  TGI: > 100 µM
[44]
  GI50: > 100 µM
  TGI: > 100 µM
[45]
  GI50: > 100 µM
  TGI: > 100 µM
[46]
  GI50: > 100 µM
  TGI: > 100 µM
[47]
  GI50: > 100 µM
  TGI: > 100 µM
[48]
  GI50: > 100 µM
  TGI: > 100 µM
[49]
  GI50: > 100 µM
  TGI: > 100 µM
[50]
  GI50: > 100 µM
  TGI: > 100 µM
[51]
  GI50: > 100 µM
  TGI: > 100 µM
[52]
  GI50: > 100 µM
  TGI: > 100 µM
[53]
  GI50: > 100 µM
  TGI: > 100 µM
[54]
  GI50: > 100 µM
  TGI: > 100 µM
[55]
  GI50: > 100 µM
  TGI: > 100 µM
[56]
  GI50: > 100 µM
  TGI: > 100 µM
